Measured values from patent US20080085889A1, “Amidomethyl-Substituted 1-(Carboxyalkyl) Cyclopentyl-Carbonylamino-Benzazepine-N-Acetic Acid Compounds, Process and Intermediate Products for Their Preparation and Pharmaceutical Compositions Containing Them” (SOLVAY PHARMACEUTICALS GmbH, priority 2003, published 2008).

How the values were obtained:
[1] = molecular target: T1, soluble, human recombinant NEP (Homo sapiens, UniProt P08473); assay: In-vitro investigation of the NEP inhibitory action (fluorescence-quenched Big-ET-1 analogue, HPLC); format: biochemical
T1 construct: soluble, human recombinant NEP; purchased Prof; Crine, University of Montreal, Canada
T1 sequence (P08473 52-750 limits assumed): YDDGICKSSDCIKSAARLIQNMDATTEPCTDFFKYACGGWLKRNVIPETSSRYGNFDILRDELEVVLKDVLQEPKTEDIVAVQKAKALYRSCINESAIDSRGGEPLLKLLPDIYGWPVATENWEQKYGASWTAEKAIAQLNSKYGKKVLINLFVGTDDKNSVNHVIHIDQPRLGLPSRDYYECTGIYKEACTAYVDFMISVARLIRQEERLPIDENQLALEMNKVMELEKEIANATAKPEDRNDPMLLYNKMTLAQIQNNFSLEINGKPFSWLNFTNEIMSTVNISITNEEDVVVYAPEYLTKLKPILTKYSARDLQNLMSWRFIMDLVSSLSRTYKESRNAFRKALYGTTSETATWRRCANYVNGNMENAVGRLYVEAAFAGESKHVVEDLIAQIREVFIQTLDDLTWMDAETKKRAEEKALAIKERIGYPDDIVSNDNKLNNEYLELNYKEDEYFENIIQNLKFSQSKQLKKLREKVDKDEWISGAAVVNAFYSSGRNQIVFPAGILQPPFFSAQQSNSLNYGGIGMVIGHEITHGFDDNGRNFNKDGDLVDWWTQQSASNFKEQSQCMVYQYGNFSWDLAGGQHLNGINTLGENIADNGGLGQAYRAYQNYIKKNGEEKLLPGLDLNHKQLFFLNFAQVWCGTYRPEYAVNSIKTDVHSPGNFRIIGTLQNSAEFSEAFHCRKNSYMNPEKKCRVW
Protocol: 1. In-Vitro Investigation of the NEP Inhibitory Action of the Substances
In this test, the measure of the inhibitory activity of the substances which was determined was their IC50 value. The IC50 value of a test substance having enzyme-inhibitory activity is that concentration of the test substance at which 50% of the enzymatic activity of the NEP is blocked.
70 μl test buffer, 10 μl enzyme working solution and 10 μl test substance solution were mixed in an Eppendorf vessel and preincubated at 37° C. for 15 minutes (=min.). Then 10 μl substrate stock solution was added and the test batch was incubated for 60 minutes at 37° C. The enzymatic reaction was then ended by 5-minutes' heating to 95° C. After centrifugation (Heraeus Biofuge B, 3 min.), the liquid supernatant was investigated by HPLC in accordance with the following specifications.
The substrate was separated from cleavage products by means of reversed-phase HPLC (CC 125/4 Nucleosil 300/5 C18 RP column with CC 8/4 Nucleosil 100/5 C18 precolumn, from Macherey-Nagel, Düren, Germany). For this, 60 μl of the test mixture was injected into the HPLC sample injection point and the column was then eluted at a flow rate of 1 ml/min with the following gradient:
Mobile Phase B: 100% acetonitrile+0.5M H3PO4
All the peptides were detected by absorption at 214 nm and by fluorescence with an excitation wavelength of 328 nm and an emission wavelength of 393 nm.
Upon enzymatic cleavage of the peptide, the fluorophore (=Mca) and the quencher end up in different peptide fragments, which reduces the effectiveness of the quench. […] The increasing fluorescence signal (corresponds to the area, A) of the HPLC peak of the peptide with the non-quenched Mca fluorophore is used for the further calculations. This signal was compared for samples with (=Ainhib) and without (=Acontrol) test substance of Formula I, and the value “% inhibition” was calculated on the basis of the respective peak areas according to the following formula: % inhibition=100*(1−Ainhib/Acontrol)
All the samples were measured in duplicates and average values were calculated therefrom. A standard inhibitor (10 nM thiorphan) and a solvent control (0.1% DMSO) were likewise measured as quality controls on each run. In this test model the test substances of Formula I listed in the following Table 1 had the IC50 values given below: […]

[2] = tested on: formation of ET-1 from Big-ET-1; assay: In vivo inhibition of the Big-ET-1-induced blood pressure increase in anaesthetised rats, i.v. single dose; parameters: species or system Rats (Sprague-Dawley); conditions: Rattus norvegicus, iv, 5 min before 0.5 nmol/kg Big-ET-1, negative values indicate inhibition, read-out: % substance-related inhibition of the maximum Big-ET effect on SAP vs. control; for change in vivo at 10 µmol/kg: 10 μmol/kg; for change in vivo at 3 µmol/kg: 3 μmol/kg
From the text: 3. In Vivo Investigation of the Inhibitory Action of the Substances on the Formation of ET-1 from Big-ET-1 in Rats
ET-1 is an endogenous substance with strong vasoconstrictive effect. An increase in the ET-1 level results in an increase in blood pressure. Upon infusion of Big-ET-1, an increase in blood pressure takes place to the extent that ET-1 is produced therefrom by enzyme-catalysed cleavage of Big-ET-1. As a measurement of the enzyme-inhibiting action of the substances, their inhibitory action on the increase in blood pressure induced by infusion of Big-ET-1 was determined.
Rats (Sprague-Dawley, CRLD=Charles River) were anaesthetised with 1 ml/kg Rompun/Ketavet 1:1. A pressure transducer (Statham) was inserted into the carotid artery to measure blood pressure. One jugular vein was cannulated for administering the substance, and the other for administering Big-ET-1. After a 20-minute equilibration phase, the rats were administered the corresponding test substance of Formula I at a dose of as a rule 10 μmol/kg (if not stated otherwise), or a vehicle. Five minutes later, 0.5 nmol/kg Big-ET-1 was infused over a period of one minute. The systolic (SAP=systolic arterial pressure) and the diastolic (DAP=diastolic arterial pressure) blood pressure and the heart rate were each measured before administration of the substance, then immediately before administration of Big-ET and in each case every five minutes over a period of 30 minutes after Big-ET administration using the pressure transducer in known manner. The maximum Big-ET-induced increase in blood pressure and the maximum lowering of heart rate were calculated from the measured values as the difference between the value measured at the moment of maximum development of the Big-ET action (typically after 5 min.) and the value measured before Big-ET infusion. Furthermore, the integral of the blood pressure curve under the influence of Big-ET-1 was determined over 30 minutes (AUC=area under the curve).
The percentage inhibition of the maximum Big-ET-1 effect on the systolic arterial blood pressure (SAP) after i.v. administration of the test substances compared with administration of a vehicle is set forth in the following Table 3a:
Data given in table 3a as negative values indicate an inhibitory effect.

[3] = molecular target: T2, His6-tagged hSEP ectodomain (Homo sapiens, UniProt Q495T6); assay: In vitro investigation of the hSEP-inhibitory action (fluorescence-quenched Big-ET-1 analogue, HPLC); format: biochemical
T2 construct: His6-tagged hSEP ectodomain; His6; purchased Innogenetics, Ghent, Belgium
T2 sequence (Q495T6 49-779 limits assumed): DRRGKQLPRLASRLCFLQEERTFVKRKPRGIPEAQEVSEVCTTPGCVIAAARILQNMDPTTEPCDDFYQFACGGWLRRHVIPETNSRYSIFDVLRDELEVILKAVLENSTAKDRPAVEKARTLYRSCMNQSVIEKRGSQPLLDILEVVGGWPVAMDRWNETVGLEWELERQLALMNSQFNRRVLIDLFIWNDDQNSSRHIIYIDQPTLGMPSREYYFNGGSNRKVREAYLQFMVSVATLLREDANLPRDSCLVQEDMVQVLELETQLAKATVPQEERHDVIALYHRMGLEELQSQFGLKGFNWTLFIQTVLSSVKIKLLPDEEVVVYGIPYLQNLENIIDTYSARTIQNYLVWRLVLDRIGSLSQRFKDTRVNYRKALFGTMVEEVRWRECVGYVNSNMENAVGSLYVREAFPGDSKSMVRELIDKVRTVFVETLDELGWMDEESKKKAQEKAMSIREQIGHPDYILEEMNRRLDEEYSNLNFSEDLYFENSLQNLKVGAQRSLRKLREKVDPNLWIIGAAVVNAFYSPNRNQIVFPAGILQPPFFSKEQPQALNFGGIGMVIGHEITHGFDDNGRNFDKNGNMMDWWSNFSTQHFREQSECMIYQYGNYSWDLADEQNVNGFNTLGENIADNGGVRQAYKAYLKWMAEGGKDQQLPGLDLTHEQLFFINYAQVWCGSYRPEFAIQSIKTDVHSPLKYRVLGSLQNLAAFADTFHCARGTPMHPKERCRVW
Protocol: 2. In Vitro Investigation of the hSEP-Inhibitory Action of the Substances
In this test, the measure of the inhibitory activity of the substances which was determined was their IC50 value. The IC50 value of a test substance having enzyme-inhibitory activity is that concentration of the test substance at which 50% of the enzymatic activity of the hSEP is blocked.
The test and the HPLC procedure were carried out analogously to the manner set forth above for determining the in vitro inhibitory action of the test substances on NEP. 10 nM phosphoramidon served as standard inhibitor in the HPLC procedure. In this test model the test substances of Formula I listed in the following Table 2 had the IC50 values given below: […]

IC50 [1] [nM]	IC50 [3] [nM]	SMILES	change in vivo at 10 µmol/kg [2] [%]	change in vivo at 3 µmol/kg [2] [%]
16.9		CC(=O)CC(C)(C)NC(=O)CC(CC1(C(=O)N[C@H]2CCc3ccccc3N(CC(=O)O)C2=O)CCCC1)C(=O)O (mixture of isomers) [Example 21]	-43	
7.8	26.8	O=C(O)CN1C(=O)[C@@H](NC(=O)C2(CC(CC(=O)NCc3ccccc3)C(=O)O)CCCC2)CCc2ccccc21 (mixture of isomers) [Example 27]		
	11.9	CNC(=O)CC(CC1(C(=O)N[C@H]2CCc3ccccc3N(CC(=O)O)C2=O)CCCC1)C(=O)O (mixture of isomers) [Example 28]		
13.8		CC(C)N(C)C(=O)CC(CC1(C(=O)NC2CCc3ccccc3N(CC(=O)O)C2=O)CCCC1)C(=O)O (racemic) [Example 32, 2-{[1-({[1-(carboxymethyl)-2-oxo-2,3,4,5-tetrahydro-1H-1-benzazepin-3-yl]amino}carbonyl)cyclopentyl]methyl}-4-[isopropyl(methyl)amino]-4-oxobutanoic acid]	-60	
3.2	2.9	CN(CCO)C(=O)CC(CC1(C(=O)NC2CCc3ccccc3N(CC(=O)O)C2=O)CCCC1)C(=O)O (racemic) [Example 43, 2-{[1-({[1-(carboxymethyl)-2-oxo-2,3,4,5-tetrahydro-1H-1-benzazepin-3-yl]amino}carbonyl)cyclopentyl]methyl}-4-[(2-hydroxyethyl)(methyl)amino]-4-oxobutanoic acid]		
		CN(C)C(=O)CC(CC1(C(=O)NC2CCc3ccccc3N(CC(=O)O)C2=O)CCCC1)C(=O)O (racemic) [Example 54, 2-{[1-({[1-(carboxymethyl)-2-oxo-2,3,4,5-tetrahydro-1H-1-benzazepin-3-yl]amino}carbonyl)cyclopentyl]methyl}-4-(dimethylamino)-4-oxobutanoic acid]	-87	
	2.5	CN(CCCO)C(=O)CC(CC1(C(=O)NC2CCc3ccccc3N(CC(=O)O)C2=O)CCCC1)C(=O)O (racemic) [Example 56, 2-{[1-({[1-(carboxymethyl)-2-oxo-2,3,4,5-tetrahydro-1H-1-benzazepin-3-yl]amino}carbonyl)cyclopentyl]methyl}-4-[(3-hydroxypropyl)(methyl)amino]-4-oxobutanoic acid]		
		CN(C)CCCN(C)C(=O)CC(CC1(C(=O)NC2CCc3ccccc3N(CC(=O)O)C2=O)CCCC1)C(=O)O (racemic) [Example 60, 2-[(1-{[1-(carboxymethyl)-2-oxo-2,3,4,5-tetrahydro-1H-1-benzazepin-3-yl]carbamoyl}cyclopentyl)methyl]-4-{[3-(dimethylamino)propyl](methyl)amino}-4-oxobutanoic acid]	-70	
		CNCCCN(C)C(=O)CC(CC1(C(=O)NC2CCc3ccccc3N(CC(=O)O)C2=O)CCCC1)C(=O)O (racemic) [Example 77, 2-{[1-({[1-(carboxymethyl)-2-oxo-2,3,4,5-tetrahydro-1H-1-benzazepin-3-yl]amino}carbonyl)cyclopentyl]methyl}-4-{methyl[3-(methylamino)propyl]amino}-4-oxobutanoic acid]		-56
18.2	9.5	O=C(O)CN1C(=O)[C@@H](NC(=O)C2(CC(CC(=O)N3CCOCC3)C(=O)O)CCCC2)CCc2ccccc21 (single isomer, unassigned) [Example 19]		
4	12.3	COc1ccccc1CNC(=O)CC(CC1(C(=O)N[C@H]2CCc3ccccc3N(CC(=O)O)C2=O)CCCC1)C(=O)O (single isomer, unassigned) [Example 31]		
37	25.3	O=C(O)CN1C(=O)[C@@H](NC(=O)C2(CC(CC(=O)NCCCO)C(=O)O)CCCC2)CCc2ccccc21 (stereo in doubt) [Example 10, (2″rel1″)-2-{[1-({[(3S)-1-(carboxymethyl)-2-oxo-2,3,4,5-tetrahydro-1H-1-benzazepin-3-yl]amino}carbonyl)cyclopentyl]methyl}-4-[(3-hydroxypropyl)amino]-4-oxobutyric acid]		
	21.4	CC(C)NC(=O)CC(CC1(C(=O)N[C@H]2CCc3ccccc3N(CC(=O)O)C2=O)CCCC1)C(=O)O (stereo partly drawn) [Example 2, 2-{[(3S)-1-({[1-(carboxymethyl)-2-oxo-2,3,4,5-tetrahydro-1H-1-benzazepin-3-yl]amino}-carbonyl)cyclopentyl]methyl}-4-(isopropylamino)-4-oxobutyric acid]	-53	
		CC(C)NC(=O)CC(CC1(C(=O)N[C@H]2CCc3ccccc3N(CC(=O)O)C2=O)CCCC1)C(=O)OCc1ccc(Cl)cc1 (stereo partly drawn) [Example 14, {(3S)-3-[({1-[2-{[(4-chlorobenzyl)oxy]carbonyl}-4-(isopropylamino)-4-oxobutyl]-cyclopentyl}carbonyl)amino]-2-oxo-2,3,4,5-tetrahydro-1H-1-benzazepin-1-yl}acetic acid]		-59
		CC(C)[C@H](N)C(=O)OC1CCN(C(=O)CC(CC2(C(=O)N[C@H]3CCc4ccccc4N(CC(=O)O)C3=O)CCCC2)C(=O)O)CC1 (stereo partly drawn) [Example 70, 2-{[1-({[1-(carboxymethyl)-2-oxo-2,3,4,5-tetrahydro-1H-1-benzazepin-3-yl]amino}carbonyl)cyclopentyl]methyl}-4-oxo-4-[4-(L-valyloxy)piperidin-1-yl]butanoic acid]	-77	
